Measurements as given in PubChem BioAssay AID2060899 (Molecular Pharmacology Branch, DTP, NCI, 2025).

Test system: 565726-208-R1-J5-PDC complex spheroids, growth inhibition
Assay: Anticancer human tumor 565726-208-R1-J5-PDC patient-derived pancreatic adenocarcinoma cell line growth inhibition [RAS]
Settings: for IC50: curve of first compound; for viability, T/C: stronger effect = lower value; active means viability on the fitted dose curve at most 10% of control; inactive means the rest
Method in brief: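 Agents were tested in combination matrices in half-log decrements from a top concentration at or near clinical Cmax (10 microM if undetermined). Targets were multi-cell spheroids of tumour lines plus HUVEC and MSC stromal cells.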
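Further: spheroids exposed to compounds for seven days before readout.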
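Wherever viability, T/C is given: 100% = DMSO vehicle control viability.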

CC1(C)CCC(Nc2ncc(C(F)(F)F)c(-c3c[nH]c4c(P(C)(C)=O)c(C#N)ccc34)n2)CN1 (centres undefined) + CCn1c(-c2cccnc2C(C)OC)c2c3cc(ccc31)N1CCOC(CC(NC(=O)C(C(C)C)N(C)C(=O)C3(F)CCN(C(=O)C#CC(C)(C)N(C)C)CC3)C(=O)N3CCCC(N3)C(=O)OCC(C)(C)C2)C1
1.09 nM: IC50 (second compound 0.3 µM)
inactive: viability, T/C (second compound 0.000949 µM, first compound 0.000949 µM) 86% | viability, T/C (second compound 0.000949 µM, first compound 0.003 µM) 54% | viability, T/C (second compound 0.000949 µM, first compound 0.00949 µM) 37.6% | viability, T/C (second compound 0.000949 µM, first compound 0.03 µM) 32.1% | viability, T/C (second compound 0.000949 µM, first compound 0.0949 µM) 32.2% | viability, T/C (second compound 0.000949 µM, first compound 0.3 µM) 29.5% | viability, T/C (second compound 0.003 µM, first compound 0.000949 µM) 89% | viability, T/C (second compound 0.003 µM, first compound 0.003 µM) 55% | viability, T/C (second compound 0.003 µM, first compound 0.00949 µM) 36.5% | viability, T/C (second compound 0.003 µM, first compound 0.03 µM) 29.2% | viability, T/C (second compound 0.003 µM, first compound 0.0949 µM) 29.5% | viability, T/C (second compound 0.003 µM, first compound 0.3 µM) 28.7% | viability, T/C (second compound 0.00949 µM, first compound 0.000949 µM) 83.2% | viability, T/C (second compound 0.00949 µM, first compound 0.003 µM) 55.4% | viability, T/C (second compound 0.00949 µM, first compound 0.00949 µM) 33.5% | viability, T/C (second compound 0.00949 µM, first compound 0.03 µM) 27.9% | viability, T/C (second compound 0.00949 µM, first compound 0.0949 µM) 26.9% | viability, T/C (second compound 0.00949 µM, first compound 0.3 µM) 27.6% | viability, T/C (second compound 0.03 µM, first compound 0.000949 µM) 76% | viability, T/C (second compound 0.03 µM, first compound 0.003 µM) 50.9% | viability, T/C (second compound 0.03 µM, first compound 0.00949 µM) 36.4% | viability, T/C (second compound 0.03 µM, first compound 0.03 µM) 29% | viability, T/C (second compound 0.03 µM, first compound 0.0949 µM) 28.6% | viability, T/C (second compound 0.03 µM, first compound 0.3 µM) 29.3% | viability, T/C (second compound 0.0949 µM, first compound 0.000949 µM) 69.3% | viability, T/C (second compound 0.0949 µM, first compound 0.003 µM) 46.7% | viability, T/C (second compound 0.0949 µM, first compound 0.00949 µM) 30% | viability, T/C (second compound 0.0949 µM, first compound 0.03 µM) 26.9% | viability, T/C (second compound 0.0949 µM, first compound 0.0949 µM) 29% | viability, T/C (second compound 0.0949 µM, first compound 0.3 µM) 32.9% | viability, T/C (second compound 0.3 µM, first compound 0.000949 µM) 52% | viability, T/C (second compound 0.3 µM, first compound 0.003 µM) 35.6% | viability, T/C (second compound 0.3 µM, first compound 0.00949 µM) 27.4% | viability, T/C (second compound 0.3 µM, first compound 0.03 µM) 26.7% | viability, T/C (second compound 0.3 µM, first compound 0.0949 µM) 27.8% | viability, T/C (second compound 0.3 µM, first compound 0.3 µM) 26.5%
3.98 nM: IC50 (second compound 0.00949 µM)
3.9 nM: IC50 (second compound 0.000949 µM)
4.09 nM: IC50 (second compound 0.003 µM)
2.54 nM: IC50 (second compound 0.0949 µM)
3.25 nM: IC50 (second compound 0.03 µM)

Nc1ccn(C2OC(CO)C(O)C2(F)F)c(=O)n1 (centres undefined) + CCn1c(-c2cc(N3CCN(C)CC3)cnc2C(C)OC)c2c3cc(ccc31)-c1csc(n1)CC(NC(=O)C1CC1C)C(=O)N1CCCC(N1)C(=O)OCC(C)(C)C2
7.2 nM: IC50 (second compound 0.003 µM)
21.9 nM: IC50 (second compound 0.000949 µM)
< 3.16 nM: IC50 (second compound 0.00949 µM) | IC50 (second compound 0.03 µM) | IC50 (second compound 0.0949 µM) | IC50 (second compound 0.3 µM)
inactive: viability, T/C (second compound 0.000949 µM, first compound 0.00316 µM) 63.3% | viability, T/C (second compound 0.000949 µM, first compound 0.01 µM) 54.7% | viability, T/C (second compound 0.000949 µM, first compound 0.0316 µM) 49.9% | viability, T/C (second compound 0.000949 µM, first compound 0.1 µM) 34.4% | viability, T/C (second compound 0.000949 µM, first compound 0.316 µM) 35% | viability, T/C (second compound 0.000949 µM, first compound 1 µM) 27.8% | viability, T/C (second compound 0.003 µM, first compound 0.00316 µM) 56.7% | viability, T/C (second compound 0.003 µM, first compound 0.01 µM) 46.3% | viability, T/C (second compound 0.003 µM, first compound 0.0316 µM) 40.4% | viability, T/C (second compound 0.003 µM, first compound 0.1 µM) 33.6% | viability, T/C (second compound 0.003 µM, first compound 0.316 µM) 33.1% | viability, T/C (second compound 0.003 µM, first compound 1 µM) 24.3% | viability, T/C (second compound 0.00949 µM, first compound 0.00316 µM) 38.8% | viability, T/C (second compound 0.00949 µM, first compound 0.01 µM) 42.1% | viability, T/C (second compound 0.00949 µM, first compound 0.0316 µM) 34.2% | viability, T/C (second compound 0.00949 µM, first compound 0.1 µM) 29.1% | viability, T/C (second compound 0.00949 µM, first compound 0.316 µM) 28.3% | viability, T/C (second compound 0.00949 µM, first compound 1 µM) 23.7% | viability, T/C (second compound 0.03 µM, first compound 0.00316 µM) 28.9% | viability, T/C (second compound 0.03 µM, first compound 0.01 µM) 31.7% | viability, T/C (second compound 0.03 µM, first compound 0.0316 µM) 24.4% | viability, T/C (second compound 0.03 µM, first compound 0.1 µM) 22.1% | viability, T/C (second compound 0.03 µM, first compound 0.316 µM) 24.1% | viability, T/C (second compound 0.03 µM, first compound 1 µM) 21.7% | viability, T/C (second compound 0.0949 µM, first compound 0.00316 µM) 25.4% | viability, T/C (second compound 0.0949 µM, first compound 0.01 µM) 26.9% | viability, T/C (second compound 0.0949 µM, first compound 0.0316 µM) 23.1% | viability, T/C (second compound 0.0949 µM, first compound 0.1 µM) 21.1% | viability, T/C (second compound 0.0949 µM, first compound 0.316 µM) 19.1% | viability, T/C (second compound 0.0949 µM, first compound 1 µM) 18.9% | viability, T/C (second compound 0.3 µM, first compound 0.00316 µM) 22.3% | viability, T/C (second compound 0.3 µM, first compound 0.01 µM) 25.2% | viability, T/C (second compound 0.3 µM, first compound 0.0316 µM) 23.3% | viability, T/C (second compound 0.3 µM, first compound 0.1 µM) 20.9% | viability, T/C (second compound 0.3 µM, first compound 0.316 µM) 22.2% | viability, T/C (second compound 0.3 µM, first compound 1 µM) 19%
